Measured values taken from patent publication US8822229B2, “Method for assaying keratan sulfate, assay kit therefor and method for detecting joint disease by using the same” (Seikagaku Corporation, priority 2008, dated 2014).

What was measured:
[1] = adjuvant-induced arthritis (AIA) model in rats, plasma KS level; assay type: in vivo, rat; details: incadronate 1 mg/kg s.c. once a day from day 14; day 35 after adjuvant; BCD-4/MK-172 assay; vs AIA control group
Protocol: (§1) In Example 5, 6-week-old male Lewis rats (SPF, Charles River Laboratories Japan, Inc.) were employed. The adjuvant was prepared by suspending heat-killed Mycobacterium butyricum (product of DIFCO) in liquid paraffin (product of Wako Pure Chemical Industries, Ltd.) at a concentration of 6 mg/mL. The adjuvant was subcutaneously administered to each of the rats in the right hind paw (0.3 mg/paw) without anesthesia. Fourteen days after administration, the rats were divided into 4 groups. To a non-treated normal control group, only liquid paraffin was administered to the rats in a similar manner. From the timing of the grouping, incadronate (Bisphonal (registered trademark) injection (10 mg), product of Astellas Pharma Inc.) was subcutaneously administered to the rats every day (once a day) at a dose of 1 mg/kg to the day before the day of sacrifice. […] The edema volume of the left hind paw was measured by means of a volumetric apparatus (TK-101CMP, product of UNICOM). […] The plasma KS level (non-treated control group, AIA control group, and incadronate-administered group) was determined on day 35 after administration of the adjuvant, by means of a conventional KS assay kit (5D4 assay system) and through the KS assay system of the present invention. […]

[2] = system: adjuvant-induced arthritis (AIA) model in rats; test: adjuvant-induced arthritis (AIA) model in rats, left hind paw edema volume; assay type: in vivo, rat; details: incadronate 1 mg/kg s.c. once a day from day 14; day 35 after adjuvant; vs AIA control group
Protocol: as §1

With `O=P(O)(O)C(NC1CCCCCC1)P(=O)(O)O` [incadronate] the “plasma KS level” value [1] was “reduced as compared with the AIA control group” and the left paw volume [2] was “reduced as compared with the AIA control group”.
